Test results taken from patent US11198869B2, “Angelman syndrome antisense treatment” (The Texas A&M University System, priority 2017, dated 2021).

Experiments:
Format in all cases: cell-based, human
SNORD116 = SNORD116 steady state RNA (qRT-PCR) in GABAergic iPSC-derived neurons; details: 10-point dose curve 1 nM-30 μM; 14 DIV to 20 DIV
From the text: The effects of ASO-4 and Topotecan were then examined on the SNORD116, IPW, SNORD115, and SNORD109A RNAs, which are located upstream of the ASO-4 target region (see FIG. 1A).
GABAergic and glutamatergic induced pluripotent stem cell (iPSC) derived neural precursor cells (NRC-100-010-001 and GNC-301-030-001, Cellular Dynamics International, Madison Wis.) were differentiated into neurons according to the manufactures protocol. Briefly, neural precursor cells were thawed and resuspended in chemically defined medium and added to sterile-culture plates coated with poly-D-lysine and laminin. The medium was replaced 24 hr after plating and then one-half of the medium was replaced every 3-5 days afterwards.
For cultured iPSC-derived neurons, RNA isolation and cDNA synthesis were performed using the Cell-to-CT kit (Thermo Fisher Scientific) in a lysate volume of 55 μl.
The steady state RNA levels of target transcripts were measured using TaqMan quantitative reverse-transcription PCR (qRT-PCR) assays. […] Cycling conditions were 2 minutes at 50° C., 10 minutes at 95° C., and 40 cycles of 15 seconds at 95° C. and 1 minute at 60° C., with readings taken at the 60° C. step of every cycle. […] Data was retrieved and analyzed with the BIORAD CFX Maestro software (Bio-Rad Laboratories). […]

UBE3A-AS = UBE3A-AS steady state RNA (TaqMan qRT-PCR) in GABAergic iPSC-derived neurons; details: for Relative Potency: relative to ASO-4.4.PS.L = 1
[1] = tested on: SNORD115 host-gene transcript (SNHG115); test: RNA-sequencing of Angelman syndrome iPSC neurons: SNHG115; details: 30 μM, six days post-treatment, RNA-seq
Method: RNA was isolated using Qiagen RNAeasy Plus (74136, Qiagen, Hilden, Germany). RNA concentration was determined using Qubit Fluorometric Quantitation (Thermo Fisher Scientific) and RNA quality was assessed using a 4200 Agilent TapeStation (Agilent, Santa Clara, Calif.). RNA-sequencing libraries were generated using the Illumina TruSeq Stranded Total RNA kit (20020597, Illumina, Inc., San Diego, Calif.) according to the manufacturer's protocol. 75 base-pair paired-end sequencing was performed using a NextSeq 500 (IIlumina, San Diego, Calif.) at the Texas A&M Institute for Genome Sciences and Society Genomics core. Raw sequencing reads were processed using CASAVA. The resulting FASTQ sequences were examined using FASTQC. […]
To determine whether ASO-4.4.PS.L and ASO-6.1.PO-1.O affect the levels of RNA transcripts encoded by the PWS polycistronic transcript, RNA-sequencing was performed on AS iPS cells treated with each ASO and the steady state RNA levels of SNURF, SNRPN, the SNORD116 host-gene transcript (SNHG116), the SNORD116 snoRNAs, IPW, the SNORD115 host-gene transcript (SNHG115), the SNORD115 snoRNAs, and UBE3A-AS were quantified. UBE3A steady state RNA levels were also measured. […]

[2] = Cluster 1 ASOs, 18 DIV to 24 DIV, parallel model, 4 Parameter logistic (Hill)
[3] = candidate ASOs, 18 DIV to 24 DIV
[4] = candidate ASOs, 18 DIV to 24 DIV, 4-parameter logistic (Hill)
[5] = candidate ASOs, treated 18 DIV, RNA 24 DIV, 10-point dose curve, n=2, full model, 4-parameter logistic (Hill)

Row | Compound | effect on SNORD116 RNA levels (in words) (SNORD116) | IC50 (UBE3A-AS; [2]) [nM] | Relative Potency (UBE3A-AS; Cluster 1 ASOs, parallel model) | 30 μM (Mean), normalized UBE3A-AS RNA level relative to vehicle (UBE3A-AS; [3]) | Emax (normalized UBE3A-AS RNA level relative to vehicle) (UBE3A-AS; [4]) | IC50 (UBE3A-AS; [5]) [nM] | IC50 Ratio relative to ASO-4.4.PS.L (UBE3A-AS; Cluster 1 ASOs, equivalence, two one-sided tests) | Limit Exceeded (equivalence of IC50 relative to ASO-4.4.PS.L) (UBE3A-AS; Cluster 1 ASOs, two one-sided tests) | Difference, SNH115G RNA level relative to vehicle [1] | Difference, SNH115G RNA level relative to vehicle ([1]; listed as ASO-6.1.PS-1.O)
1 | CC[C@@]1(O)C(=O)OCc2c1cc1n(c2=O)Cc2cc3c(CN(C)C)c(O)ccc3nc2-1 [Topotecan, reference compound] | significant effect on SNORD116, IPW, SNORD115, and SNORD109A/B RNA levels that was dose dependent |  |  |  |  |  |  |  |  | 
2 | A^L*G^L*A^L*a*t*g*g*c*a*c*a*t*c*t*5mC^L*T^L*T^L*G^L (NNNATGGCACATCTNNNN; LNA gapmer, PS, 5-methylcytosine, chemistry not fully specified) [ASO-4.4.PS.L] |  | 50.3 | 1 | 0.05 | 0.0 | 26.6 |  |  |  | 
3 | C^O*U^O*G^O*G^O-t*g*t*c*a*a*c*a*a*g-C^O*C^O*A^O*A^o [ASO-6.1.PO-1.O] |  | 199 | 0.3 | 0.04 | −0.1 | 315 | 0.86 | Lower | significantly reduced | −0.55
